In US12486298B2, “Fucosyltransferase specific inhibition using fucose mimetics” (THE FLORIDA INTERNATIONAL UNIVERSITY BOARD OF TRUSTEES, priority 2020, dated 2025):

How the values were obtained:
[1] = target: T1, fucosyltransferase IX (FTIX) (Homo sapiens, UniProt Q9Y231); assay: FTIX exofucosylation of RPMI-8402 cells, Le^x by flow cytometry; type: cell-based
T1 sequence (Q9Y231 1-359): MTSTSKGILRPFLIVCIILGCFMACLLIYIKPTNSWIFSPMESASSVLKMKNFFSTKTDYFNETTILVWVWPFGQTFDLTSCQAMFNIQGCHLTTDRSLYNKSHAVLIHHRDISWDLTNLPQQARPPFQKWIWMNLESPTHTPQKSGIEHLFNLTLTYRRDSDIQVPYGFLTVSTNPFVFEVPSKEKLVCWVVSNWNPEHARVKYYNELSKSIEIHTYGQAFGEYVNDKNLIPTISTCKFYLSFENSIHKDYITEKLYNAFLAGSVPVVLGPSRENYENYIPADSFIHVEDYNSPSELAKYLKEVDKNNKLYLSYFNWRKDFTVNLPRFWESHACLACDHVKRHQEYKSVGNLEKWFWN
Protocol: (§1) A Canto II (BD Biosciences) flow cytometer was utilized for flow cytometry and the data acquired was analyzed using FlowJo Software (Treestar). Cells were stained using antibodies specific to sLe^X (Alexa-Fluor 488 Mouse Anti-Human CD15s (BD Biosciences)), or Le^X (APC anti-human CD15 (SSEA-1) Antibody (BioLegend)).
Cells of the RPMI-8402 cell line and MSC cell line were treated with either 0.3 ug of fucosyltransferase VI (FTVI), 2.7 ug of fucosyltransferase VII (FTVII), 1.0 ug fucosyltransferase IX (FTIX) or buffer-only at 37° C. for 60 minutes. All reactions contained at 1×10^6 cells/30 ul in HBSS with 10 mM Hepes, 0.1% Human Serum Albumin, and 1.0 mM GDP fucose (GDP-Fuc) (Carbosynth) and the appropriate fucosytransferase. Then, mimetic 1 was added to each of the treatment groups in molar equivalents with respect to GDP-Fuc with each of the fucosytransferases. […]
(§2) Mimetic 1 (FIG. 1) was tested as an inhibitor of FT-mediated exofucosylation on these cells and the extent of fucosylation was monitored using antibodies that detect the creation of the relevant fucosylated epitopes, i.e., sLe^x or Le^x. […]

[2] = target: T2, fucosyltransferase VI (FTVI) (Homo sapiens, UniProt P51993); assay: FTVI exofucosylation of RPMI-8402 cells, sLe^x and Le^x by flow cytometry; type: cell-based
T2 construct: purchased R&D systems
T2 sequence (P51993 35-359 limits assumed): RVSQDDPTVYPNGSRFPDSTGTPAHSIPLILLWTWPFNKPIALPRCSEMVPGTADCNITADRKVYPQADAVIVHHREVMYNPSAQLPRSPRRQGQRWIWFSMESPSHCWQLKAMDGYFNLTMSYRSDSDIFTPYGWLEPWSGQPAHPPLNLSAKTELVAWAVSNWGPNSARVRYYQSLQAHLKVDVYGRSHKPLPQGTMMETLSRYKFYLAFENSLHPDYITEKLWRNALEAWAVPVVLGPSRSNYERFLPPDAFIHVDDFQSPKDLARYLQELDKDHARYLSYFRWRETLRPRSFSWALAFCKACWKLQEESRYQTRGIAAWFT
Protocol: A titration of GDP-Fucose was carried out to determine the maximum mean fluorescent intensity (MFI) of sLe^X and Le^X via flow cytometry for downstream inhibition experiments. Generally, 1×10^6 cells were used in each FTVI exofucosylation reaction and all reactions were carried out in triplicate. Cells were then stained with either Alexa-Fluor 488 Mouse Anti-Human CD15s (BD Biosciences), or APC anti-human CD15 (SSEA-1) Antibody (BioLegend). Cells were then acquired on a Canto II (BD Biosciences) flow cytometer and analylized using Flowjo software (Treestar). FTVI was purchased from R&D systems.
as §1
Cells of the RPMI-8402 cell line and MSC cell line were treated with either 0.3 ug of fucosyltransferase VI (FTVI), 2.7 ug of fucosyltransferase VII (FTVII), 1.0 ug fucosyltransferase IX (FTIX) or buffer-only at 37° C. for 60 minutes. All reactions contained at 1×10^6 cells/30 ul in HBSS with 10 mM Hepes, 0.1% Human Serum Albumin, and 1.0 mM GDP fucose (GDP-Fuc) (Carbosynth) and the appropriate fucosytransferase. Then, mimetic 1 was added to each of the treatment groups in molar equivalents with respect to GDP-Fuc with each of the fucosytransferases. The treatment groups were as follows: 1:1 GDP-Fuc to mimetic 1 (i.e., 1.0 mM GDP-Fuc and 1.0 mM mimetic), 1:2 GDP-Fuc to mimetic 1 (i.e., 1.0 mM GDP-Fuc and 2.0 mM mimetic), or preincubated in presence of FT with a 2.0 mM solution of the mimetic 1 for 45 minutes followed by addition of a 1.0 mM solution of GDP-Fuc for 1 hour. Concentrations of the various FTs were utilized that would maximize the MFI to allow the detection of the efficacy of mimetic 1 to inhibit the various enzymes.
Exofucosylation is a technique whereby a pertinent FT together with GDP-Fuc is placed in a cell suspension to stereoselectively install fucose on pertinent acceptor cell surface glycan(s). For the case of α-1,3-FTs, this approach provides the ability to pinpoint the effect(s) of mimetic addition on creation of fucosylated glycans Le^x and sLe^x, while keeping the rest of the cell's biological functions and its viability intact. Specifically, this study focused on three α-1,3-FTs that can create sLe^x and Le^x determinants: FTVII, FTIX, and FTVI. […]
as §2

[3] = RPMI-8402 cells, 1.0 mM GDP-Fuc with 1.0 mM or 2.0 mM mimetic 1
[4] = pre-incubation with 2.0 mM mimetic 1 prior to addition of GDP-Fuc

- effect of pre-incubation on FTIX-mediated exofucosylation [1, 4]: no effect
- inhibition of FTVI production of Le^x [2, 3]: clearly inhibited
- inhibition of FTVI production of sLe^x [2, 3]: markedly diminished
- inhibition of FTVI-mediated exofucosylation after pre-incubation [2, 4]: inhibited more completely
- concentration of highest inhibition against FTVI ([2]; titration of mimetic 1, 1.0 mM GDP-Fuc, RPMI-8402 cells, bell-shaped curve): 2.0 mM
Compound: CC1OC2Oc3ccc(CC(=O)O)cc3SC2C(O)C1O (stereo not drawn) [mimetic 1]
- inhibition of FTIX-mediated exofucosylation (Le^x creation) [1, 3]: did not inhibit FTIX-mediated exofucosylation
